From paper PMC7893776, “Selecting an anti-malarial clinical candidate from two potent dihydroisoquinolones” (Malaria Journal, 2021) come the findings set out here.

Data set [1] concerns the target T1, CYP1A2 (Homo sapiens, UniProt P05177).
T1 construct: purchased Cypex Ltd (Bactosomes)
T1 sequence (P05177 1-516): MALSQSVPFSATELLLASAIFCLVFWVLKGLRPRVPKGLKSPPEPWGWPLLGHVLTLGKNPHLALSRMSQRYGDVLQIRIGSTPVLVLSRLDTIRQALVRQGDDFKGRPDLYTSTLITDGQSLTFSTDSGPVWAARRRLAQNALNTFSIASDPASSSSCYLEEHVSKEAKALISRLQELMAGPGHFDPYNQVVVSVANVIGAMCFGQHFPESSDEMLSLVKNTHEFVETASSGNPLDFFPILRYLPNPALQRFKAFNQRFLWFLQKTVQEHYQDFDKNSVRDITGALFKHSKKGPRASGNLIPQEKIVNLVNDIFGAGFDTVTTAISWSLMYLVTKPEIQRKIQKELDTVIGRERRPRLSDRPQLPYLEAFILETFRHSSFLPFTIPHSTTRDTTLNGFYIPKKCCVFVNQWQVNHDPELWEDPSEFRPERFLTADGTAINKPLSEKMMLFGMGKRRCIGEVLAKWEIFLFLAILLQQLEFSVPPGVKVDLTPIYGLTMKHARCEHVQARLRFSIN
Nature of the data set: CYP450 inhibition, CYP1A2. It counts as in vitro ADME.

Data set [2] has as its target T2, CYP2D6 (Homo sapiens, UniProt P10635).
T2 construct: purchased Cypex Ltd (Bactosomes)
Nature of the data set: CYP450 inhibition, CYP2D6. It counts as in vitro ADME.

Data set [3] addresses T3, CYP3A4 (Homo sapiens, UniProt P08684).
T3 construct: purchased Cypex Ltd (Bactosomes)
Nature of the data set: CYP450 inhibition, CYP3A4. It counts as in vitro ADME.

The nature of data set [4]: Microsomal stability, mouse. The data set is classed as in vitro ADME. Particulars: mouse microsomes; for CLint in vitro: independent replicate to Table 4; for CLint in vivo: scaled up using PBSF. The procedure:
(§1) The metabolic stability assay was performed by incubating compounds individually (0.8, 4, or 20 µM) with mouse, rat, dog and human liver microsomes (Fisher, 0.5 mg/mL protein concentration) at 37 °C. The metabolic reaction was initiated by the addition of a NADPH-regenerating system and quenched at various time points by the addition of acetonitrile according to a published method.
(§2) The remaining concentration of each compound was measured as a ratio of peak area to the internal standard. The log peak area ratio was plotted vs. time (h), and the slope was determined to calculate the elimination rate constant [k = (− 2.303) * slope]. If deviation from first order kinetics was evident, only the initial linear portion of the plot was used to determine the rate constate, k. The half-life (h) was calculated as t1/2 = 0.693/k. Intrinsic clearance in vitro was calculated as CLintin vitro = (1000)*(0.693/t1/2*60)/0.5, where microsomal concentration in the reaction solution was 0.5 mg/mL; 1000 and 60 are scaling factors for volume (µL) and time (min), respectively. The intrinsic in vitro clearance was scaled to the intrinsic in vivo clearance using physiology based scaling factor (PBSF): CLint in vivo= CLint in vitro *PBSF: (microsome protein/gram liver) * (gram liver/kg b.w.), with PBSF: 47 (mouse), 47(rat), 58 (dog), 32 (human); and liver weight proportions: 54.9 (mouse), 36.6 (rat), 32.9 (dog) 25.7 (human).

The target in data set [5] is T4, CYP2C9 (Homo sapiens, UniProt P11712).
T4 construct: purchased Cypex Ltd (Bactosomes)
T4 sequence (P11712 whole entry): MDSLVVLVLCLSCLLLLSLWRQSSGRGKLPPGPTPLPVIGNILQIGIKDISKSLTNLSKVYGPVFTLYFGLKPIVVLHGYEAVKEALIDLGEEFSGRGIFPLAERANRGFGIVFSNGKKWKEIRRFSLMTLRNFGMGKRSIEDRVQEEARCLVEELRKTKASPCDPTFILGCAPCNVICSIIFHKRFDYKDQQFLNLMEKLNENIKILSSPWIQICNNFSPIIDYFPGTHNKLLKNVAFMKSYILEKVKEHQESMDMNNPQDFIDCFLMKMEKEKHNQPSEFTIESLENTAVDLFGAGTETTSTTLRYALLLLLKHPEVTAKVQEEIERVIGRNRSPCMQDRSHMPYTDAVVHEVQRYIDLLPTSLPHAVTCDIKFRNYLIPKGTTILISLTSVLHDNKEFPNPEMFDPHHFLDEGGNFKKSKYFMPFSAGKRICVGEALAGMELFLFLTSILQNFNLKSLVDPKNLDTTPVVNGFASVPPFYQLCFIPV
Nature of the data set: CYP450 inhibition, CYP2C9. It counts as in vitro ADME. The procedure:
SJ733 was first pre-incubated with Bactosomes™ (Cypex Ltd, final P450 concentration: CYP1A1 25 pmol/mL, CYP1A2 100 pmol/mL,CYP1B1 100 pmol/mL, CYP2B6 100 pmol/mL, CYP2C8 50 pmol/mL, CYP2C9, 25 pmol/mL, CYP2C19 100 pmol/mL, CYP2D6 50 pmol/mL and CYP3A4 25 pmol/mL, 0.1 M phosphate buffer pH 7.4) at 37 °C prior to the addition of NADPH (final concentration 1 mM) to initiate the reaction with a final incubation volume of 50 μL. Incubations were also performed using control Bactosomes™ (no P450 enzymes present) to reveal any non-enzymatic degradation. Control compounds known to be metabolized specifically by each P450 isoform were included individually. Test articles and controls were incubated with each isoform for 0, 5, 15, 30, and 45 min. The reactions were stopped by transferring 20 μL of the reaction mixture to 60 μL methanol at the appropriate timepoints.
In an alternate approach SJ311 was studied using a validated cocktail probe substrate method. […] All samples were analyzed using LC MS/MS, with either positive atmospheric pressure chemical ionization (APCI) mode (SJ311) or ESI (SJ733) mode utilizing multiple reaction monitoring (MRM) scans.

The nature of data set [6]: Microsomal stability, rat. It counts as in vitro ADME. Particulars: rat microsomes; for CLint in vitro: independent replicate to Table 4; for CLint in vivo: scaled up using PBSF. As to the method:
as §1, §2

Data set [7] can be described thus: Microsomal stability, human. The data set is classed as in vitro ADME. Particulars: human microsomes; for CLint in vitro: independent replicate to Table 4; for CLint in vivo: scaled up using PBSF. The procedure:
as §1, §2

Data set [8] can be described thus: Microsomal stability, dog. It counts as in vitro ADME. Particulars: dog microsomes; for CLint in vitro: independent replicate to Table 4; for CLint in vivo: scaled up using PBSF. As to the method: as §1, §2
Data set [9] is described as follows: LogD octanol/pH 7.4 buffer shake flask. It counts as physicochemical. The procedure:
Octanol/pH 7.4 buffer partitioning experiments were conducted using a shake flask method, and pKa was assessed by potentiometric titration. Both methods have been described previously.

SMILES strings stand for the structures. Values joined by “and” are separate entries in the source; they are usually repeats but may differ in a detail not shown here. Equal entries are not always repeated.

T3 sequence (P08684 whole entry): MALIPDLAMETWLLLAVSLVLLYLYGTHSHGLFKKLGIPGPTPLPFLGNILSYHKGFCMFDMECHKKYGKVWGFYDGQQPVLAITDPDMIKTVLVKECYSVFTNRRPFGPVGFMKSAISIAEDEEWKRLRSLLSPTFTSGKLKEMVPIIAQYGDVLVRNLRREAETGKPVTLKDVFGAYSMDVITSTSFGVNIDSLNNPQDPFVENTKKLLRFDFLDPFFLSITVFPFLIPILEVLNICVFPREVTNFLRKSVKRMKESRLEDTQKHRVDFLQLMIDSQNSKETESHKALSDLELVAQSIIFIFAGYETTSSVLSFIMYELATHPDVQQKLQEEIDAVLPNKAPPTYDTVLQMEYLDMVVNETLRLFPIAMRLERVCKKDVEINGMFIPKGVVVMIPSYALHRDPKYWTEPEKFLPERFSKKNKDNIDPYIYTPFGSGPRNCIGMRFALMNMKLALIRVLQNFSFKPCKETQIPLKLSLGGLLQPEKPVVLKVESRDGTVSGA
T2 sequence (P10635 whole entry): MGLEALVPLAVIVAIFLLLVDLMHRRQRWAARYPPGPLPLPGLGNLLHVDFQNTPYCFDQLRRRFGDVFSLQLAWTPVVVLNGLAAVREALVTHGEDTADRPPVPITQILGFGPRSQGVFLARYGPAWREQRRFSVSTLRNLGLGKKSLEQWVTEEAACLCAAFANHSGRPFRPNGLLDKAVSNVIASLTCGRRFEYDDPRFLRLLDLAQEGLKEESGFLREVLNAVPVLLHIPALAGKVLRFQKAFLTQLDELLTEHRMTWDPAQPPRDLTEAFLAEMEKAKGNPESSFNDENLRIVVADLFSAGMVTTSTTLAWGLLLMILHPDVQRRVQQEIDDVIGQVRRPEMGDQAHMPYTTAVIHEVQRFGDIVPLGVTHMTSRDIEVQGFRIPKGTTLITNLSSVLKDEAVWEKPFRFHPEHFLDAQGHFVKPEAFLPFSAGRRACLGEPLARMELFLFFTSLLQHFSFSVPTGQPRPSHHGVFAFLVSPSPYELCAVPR

In the case of `N#Cc1cc(NC(=O)C2c3ccccc3C(=O)N(CC(F)(F)F)C2c2cccnc2)ccc1F` (racemic) [(r)-SJ733], in [1] (10 µM, probe substrate Ethoxy-resorufin, replicate measurements), the “inhibition of CYP1A2” value came out at 10.8%. In addition, the “inhibition of CYP2D6” value in data set [2] (10 µM, probe substrate Bufuralol, replicate measurements) is 7% and 9%. The “inhibition of CYP3A4” value in [3] (10 µM, probe substrate Midazolam, replicate measurements) is 42% and 33%. In addition, the CLint in vitro in [4] (0.8 µM) is listed as 9.1 ± 0.5 µl/min/mg protein; in [4] (4 µM) it was 10 ± 0.5 µl/min/mg protein; in [4] (20 µM) it was under 7 µl/min/mg protein; in data set [6] (0.8 µM), under 7 µl/min/mg protein; in [6] (4 µM), under 7 µl/min/mg protein; in data set [6] (20 µM) it was under 7 µl/min/mg protein. The CLint in vitro in data set [7] (0.8 µM) is 12.7 ± 0.3 µl/min/mg protein; in [7] (4 µM), 11.5 ± 0.3 µl/min/mg protein; in data set [7] (20 µM) it was under 7 µl/min/mg protein; in [8] (0.8 µM), under 7 µl/min/mg protein; in data set [8] (4 µM), under 7 µl/min/mg protein; in data set [8] (20 µM), under 7 µl/min/mg protein. Moreover, the CLint in vivo was 21.4 ± 1.3 mL/min/kg in data set [4] (0.8 µM); 23.4 ± 1.1 mL/min/kg in [4] (4 µM); under 13.5 mL/min/kg in [4] (20 µM); under 11.7 mL/min/kg in data set [6] (0.8 µM); under 11.7 mL/min/kg in [6] (4 µM); under 11.7 mL/min/kg in data set [6] (20 µM). Besides, the CLint in vivo in data set [7] (0.8 µM) was 11.5 ± 0.3 mL/min/kg; in data set [7] (4 µM), 10.3 ± 1.2 mL/min/kg; in [7] (20 µM), under 5.2 mL/min/kg; in data set [8] (0.8 µM) it was under 8.3 mL/min/kg; in data set [8] (4 µM) it was under 8.3 mL/min/kg; in data set [8] (20 µM), under 8.3 mL/min/kg. Moreover, in data set [5] (10 µM, probe substrate Diclofenac, replicate measurements), the “inhibition of CYP2C9” value is 34% and 17%.

As to `N#Cc1cc(NC(=O)[C@H]2c3ccccc3C(=O)N(CC(F)(F)F)[C@@H]2c2cccnc2)ccc1F` (racemic) [SJ733], the “CYP1A2 inhibition, in words” value in data set [1] is reported as “weak inhibitors”. In addition, in data set [2], the “CYP2D6 inhibition, in words” value is “weak inhibitors”. In addition, the “CYP3A4 inhibition, in words” value in data set [3] is “moderate inhibitors”. Besides, in [5], the “CYP2C9 inhibition, in words” value is “weak inhibitors”.

As to `N#Cc1cc(NC(=O)[C@H]2c3ccccc3C(=O)N(CC(F)(F)F)[C@@H]2c2cn[nH]c2)ccc1F` [(+)-SJ311], the “LogD (7.4) Shake flask” value in data set [9] amounted to 2.30. Besides, the CLint in data set [4] (0.8 µM), in data set [6] (0.8 µM), in [7] (0.8 µM) and in data set [8] (0.8 µM) was under 7 µl/min/mg protein throughout. In addition, the t1/2 in data set [4] (0.8 µM), in data set [6] (0.8 µM), in [7] (0.8 µM) and in [8] (0.8 µM) was over 4 h each time.

For `N#Cc1cc(NC(=O)[C@H]2c3ccccc3C(=O)N(CC(F)(F)F)[C@@H]2c2cccnc2)ccc1F` [(+)-SJ733], the CLint in data set [4] (0.8 µM) is recorded as 35.4 ± 2.1 µl/min/mg protein; in data set [6] (0.8 µM), under 7 µl/min/mg protein; in data set [7] (0.8 µM), 45.5 ± 4.0 µl/min/mg protein; in [8] (0.8 µM), under 7 µl/min/mg protein. Besides, the t1/2 is reported as 0.7 ± 0.1 h in data set [4] (0.8 µM), over 4 h in data set [6] (0.8 µM), 0.5 ± 0.1 h in data set [7] (0.8 µM) and over 4 h in data set [8] (0.8 µM). Moreover, the CLint in vitro is 33.9 ± 1.3 µl/min/mg protein in [4] (0.8 µM); 27.2 ± 1.3 µl/min/mg protein in data set [4] (4 µM); 15.9 ± 2.2 µl/min/mg protein in data set [4] (20 µM); under 7 µl/min/mg protein in data set [6] (0.8 µM); under 7 µl/min/mg protein in data set [6] (4 µM); under 7 µl/min/mg protein in [6] (20 µM). Moreover, the CLint in vitro in [7] (0.8 µM) was 42.6 ± 0.7 µl/min/mg protein; in data set [7] (4 µM), 34.5 ± 0.6 µl/min/mg protein; in data set [7] (20 µM), 20.6 ± 0.5 µl/min/mg protein; in data set [8] (0.8 µM), under 7 µl/min/mg protein; in data set [8] (4 µM), under 7 µl/min/mg protein; in data set [8] (20 µM) it was under 7 µl/min/mg protein. The CLint in vivo in data set [4] (0.8 µM) is 79.3 ± 3.0 mL/min/kg; in data set [4] (4 µM) it was 63.8 ± 2.9 mL/min/kg; in data set [4] (20 µM) it was 37.3 ± 5.3 mL/min/kg; in data set [6] (0.8 µM), under 11.7 mL/min/kg; in data set [6] (4 µM) it was under 11.7 mL/min/kg; in data set [6] (20 µM), under 11.7 mL/min/kg. Further, the CLint in vivo is 38.4 ± 0.7 mL/min/kg in data set [7] (0.8 µM); 31.0 ± 0.5 mL/min/kg in [7] (4 µM); 18.5 ± 0.4 mL/min/kg in data set [7] (20 µM); under 8.3 mL/min/kg in [8] (0.8 µM); under 8.3 mL/min/kg in [8] (4 µM); under 8.3 mL/min/kg in data set [8] (20 µM).

As to `N#Cc1cc(NC(=O)[C@H]2c3ccccc3C(=O)N(CC(F)(F)F)[C@@H]2c2cn[nH]c2)ccc1F` [SJ311], in data set [1], the “CYP1A2 inhibition, in words” value is given as “weak inhibitors”. Also, in data set [2], the “CYP2D6 inhibition, in words” value was “weak inhibitors”. This compound also returned a logD in data set [9] (pH 7.4) of 2.3. Also, the “CYP3A4 inhibition, in words” value in data set [3] is on record as “moderate inhibitors”. In addition, in data set [3] (human, pH 7.4, 10 µM, probe substrate Midazolam, replicate measurements), 10 µM produced 53% inhibition. Also, the “CYP2C9 inhibition, in words” value in [5] was “weak inhibitors”.

The logD is the decadic logarithm of the distribution of all forms, ionised or not, between an organic phase and buffer at a given pH. The inhibition is the drop in the measured response relative to a control, in per cent.
